Test results reported in US9145414B2, “1,2,4-triazine-6-carboxamide derivative” (TAIHO PHARMACEUTICAL CO., LTD., priority 2011, dated 2015).
Read-outs that look alike come from different tables or passages of the source.

Experiments:
[1] = test system: SU-DHL-6 cells (diffuse large-cell lymphoma cell line); test: Cell growth inhibition test; format: cell-based; settings: read-out: Cell growth inhibition IC50
Description: The compound of the present invention was serially diluted with dimethyl sulfoxide and then added to an RPMI1640 medium containing 10% FBS. Each resulting solution was added at a concentration of 100 μl/well to the preceding SU-DHL-6 cell culture plate (final concentration of the compound: 10, 3, 1, 0.3, 0.1, 0.03, 0.01, and 0.003 μM). The cells were cultured at 37° C. for 3 days in an incubator containing 5% CO2. The cells thus cultured were left at room temperature for 30 minutes and then centrifuged at 1500 rpm for 3 minutes using a centrifuge (Hitachi Koki Co., Ltd., Himac CF7D2). A 100 μl aliquot of the supernatant was removed from each well to allow 100 μl of the cell culture solution to remain therein. This 100 μl of the remaining cell culture solution was supplemented with an equal amount of CellTiter-Glo Luminescent Cell Viability Assay (Promega KK, Cat#: G7573), and the mixture was then shaken for 1 minute using a plate mixer. The reaction solution was left in the dark for 10 minutes. Then, luminescence intensity derived from live cells of each well was measured using a microplate reader (PerkinElmer Inc., ARVOsx). […] Likewise, the IC50 values (μM) of the control compounds were also calculated and then compared with that of the compound of the present invention. Rate of cell growth inhibition(%)=(C−T)/C×100 T: luminescence intensity (count per second) of a well supplemented with the test compound C: luminescence intensity (count per second) of a well non-supplemented with the test compound

[2] = molecular target: recombinant human KDR protein (Homo sapiens (Human), UniProt P35968); test: KDR kinase activity inhibitory effect; format: biochemical
Sequence of recombinant human KDR protein (P35968 20-1356): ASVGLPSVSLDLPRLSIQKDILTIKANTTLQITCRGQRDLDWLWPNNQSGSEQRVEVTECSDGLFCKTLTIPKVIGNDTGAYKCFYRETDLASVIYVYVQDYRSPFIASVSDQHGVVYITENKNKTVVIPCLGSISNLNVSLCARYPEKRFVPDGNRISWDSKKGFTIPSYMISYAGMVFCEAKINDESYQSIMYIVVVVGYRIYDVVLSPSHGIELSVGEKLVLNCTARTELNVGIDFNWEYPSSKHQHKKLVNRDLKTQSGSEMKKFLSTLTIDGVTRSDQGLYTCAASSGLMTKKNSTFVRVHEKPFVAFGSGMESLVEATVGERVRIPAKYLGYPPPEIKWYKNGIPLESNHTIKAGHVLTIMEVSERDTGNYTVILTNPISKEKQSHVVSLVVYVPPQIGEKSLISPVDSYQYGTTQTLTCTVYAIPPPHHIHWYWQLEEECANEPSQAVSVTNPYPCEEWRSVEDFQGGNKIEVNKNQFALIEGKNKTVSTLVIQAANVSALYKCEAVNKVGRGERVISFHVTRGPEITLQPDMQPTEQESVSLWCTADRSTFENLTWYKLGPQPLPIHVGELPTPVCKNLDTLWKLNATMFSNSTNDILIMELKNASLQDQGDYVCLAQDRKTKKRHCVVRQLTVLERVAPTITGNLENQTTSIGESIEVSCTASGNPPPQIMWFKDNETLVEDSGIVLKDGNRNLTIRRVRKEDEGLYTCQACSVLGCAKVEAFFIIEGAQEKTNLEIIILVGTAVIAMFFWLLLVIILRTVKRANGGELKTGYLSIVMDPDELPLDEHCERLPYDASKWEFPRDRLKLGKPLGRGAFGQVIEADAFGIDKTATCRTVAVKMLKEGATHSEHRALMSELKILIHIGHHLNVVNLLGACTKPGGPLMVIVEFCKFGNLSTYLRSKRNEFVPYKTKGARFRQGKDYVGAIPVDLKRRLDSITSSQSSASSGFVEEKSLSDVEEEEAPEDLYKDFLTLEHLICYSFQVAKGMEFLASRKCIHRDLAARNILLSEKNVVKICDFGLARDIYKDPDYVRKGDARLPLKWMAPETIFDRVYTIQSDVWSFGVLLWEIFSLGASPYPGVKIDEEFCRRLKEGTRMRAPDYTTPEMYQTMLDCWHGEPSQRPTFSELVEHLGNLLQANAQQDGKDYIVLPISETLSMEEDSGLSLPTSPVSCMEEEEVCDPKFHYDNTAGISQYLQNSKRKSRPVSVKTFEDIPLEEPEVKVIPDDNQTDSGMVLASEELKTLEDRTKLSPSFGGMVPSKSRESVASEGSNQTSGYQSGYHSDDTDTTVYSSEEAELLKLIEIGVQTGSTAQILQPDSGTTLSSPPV
Description: The purified recombinant human KDR protein used in the test is a house purified product. […] The mixture was incubated at 30° C. for 180 minutes to perform kinase reaction. […] Their respective amounts were measured, and the rate of phosphorylation reaction was then determined from the ratio between the amounts.

human Syk protein = human Syk protein (Homo sapiens (Human), UniProt P43405); test: Syk kinase inhibition test; format: biochemical; settings: read-out: SYK inhibitory activity IC50
Description: Finally, phosphorylated peptides and non-phosphorylated peptides were separated therebetween using LabChip™ 3000 system (Caliper Life Sciences, Inc., excitation wavelength: 488 nm, detection wavelength: 530 nm). Their respective amounts were measured, and the rate of phosphorylation reaction was then determined from the ratio between the amounts. The concentration at which the compound can inhibit 50% phosphorylation reaction is defined as an IC50 value (μM).
Also, known 1,2,4-triazine-6-carboxamide derivatives A, B, and C (WO2000/075113 (A: compound No. 121 and B: compound No. 154) and WO2000/076980 (C: compound No. 39)) were synthesized as control compounds. Their IC50 values (μM) were calculated in the same way as above and then compared with that of the compound of the present invention.

[3] = molecular target: recombinant human Aurora B protein (Homo sapiens (Human), UniProt Q96GD4); test: Aurora B kinase activity inhibitory effect; format: biochemical; settings: Table 97; read-out: AuroraB inhibitory activity IC50
Sequence of recombinant human Aurora B protein (Homo sapiens (Human), UniProt Q96GD4) (Q96GD4 whole entry): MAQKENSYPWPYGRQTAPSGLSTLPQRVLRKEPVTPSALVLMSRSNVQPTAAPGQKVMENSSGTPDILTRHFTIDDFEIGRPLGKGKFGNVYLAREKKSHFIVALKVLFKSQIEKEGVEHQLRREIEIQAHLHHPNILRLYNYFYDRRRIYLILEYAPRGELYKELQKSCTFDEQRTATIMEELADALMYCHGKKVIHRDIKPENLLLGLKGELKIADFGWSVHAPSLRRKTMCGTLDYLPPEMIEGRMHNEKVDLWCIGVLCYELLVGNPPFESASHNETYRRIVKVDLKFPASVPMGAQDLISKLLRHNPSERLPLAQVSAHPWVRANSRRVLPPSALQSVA
Description: (§1) The reaction solution was left standing in the dark at room temperature for 120 minutes. Then, fluorescence polarization values obtained by measurement using PHERAstar (BMG LABTECH JAPAN Ltd., excitation wavelength: 485 nm, detection wavelength: 520 nm) were used to determine the rate of phosphorylation reaction.

[4] = test system: recombinant human Aurora B protein; test: Aurora B kinase activity inhibitory effect; format: biochemical; settings: Aurora B IC50 relative to Syk IC50
Description: as §1

[5] = Homo sapiens, 72 h, SU-DHL-6 cells, 3 days culture, Table 96
[6] = SU-DHL-6 cells, 3 days culture, Table 96

| SMILES | IC50 [1, 5] | IC50 (human Syk protein; Table 95) | also measured |
| --- | --- | --- | --- |
| NC(=O)c1nnc(N[C@@H]2CCOC[C@@H]2N)nc1Nc1cccc2c1ccn2C1CC1 [Example 160] | 165 nM | 0.38 nM | KDR inhibitory activity: Selectivity for Syk ([2]; KDR IC50 relative to Syk IC50): (4400 times); IC50 ([2]; Table 97): 1400 nM; IC50 (human Syk protein; Table 97): 0.38 nM; IC50 [3]: 1300 nM; AuroraB inhibitory activity: Selectivity for Syk [4]: (4100 times) |
| Cc1cc(Nc2nc(N[C@@H]3CCCC[C@@H]3N)nnc2C(N)=O)cc2nn(C(F)F)cc12 [Example 265, 3-(((1R,2S)-2-aminocyclohexyl)amino)-5-((2-(difluoromethyl)-4-methyl-2H-indazol-6-yl)amino)-1,2,4-triazine-6-carboxamide] | 125 nM | 0.5 nM | – |
| NC(=O)c1nnc(N[C@@H]2CCCC[C@@H]2N)nc1Nc1cccc2c1ccn2C1COC1 [Example 34, 3-((1R,2S)-2-aminocyclohexylamino)-5-(1-(oxetan-3-yl)-H-indol-4-ylamino)-1,2,4-triazine-6-carboxamide] | 65 nM | 0.42 nM | – |
| [2H]C([2H])([2H])C([2H])([2H])n1ncc2cc(Nc3nc(N[C@H]4CCCNC4)nnc3C(N)=O)ccc21 [Example 7, (S)-5-(1-(ethyl-d5)-1H-indazol-5-ylamino)-3-(piperidin-3-ylamino)-1,2,4-triazine-6-carboxamide diformate] | – | 0.92 nM | IC50 ([1]; Homo sapiens, SU-DHL-6, 72 h): 174 nM |
| NC(=O)c1ccc(NC2CCCCC2N)cc1Nc1ccccc1Br (stereo not shown) [A, reference compound] | – | 33 nM | IC50 [1, 6]: 2000 nM |
| Cc1cc(Nc2nc(N[C@@H]3CCOC[C@@H]3N)nnc2C(N)=O)c2ccn(C)c2c1 [Example 267] | 128 nM | 0.41 nM | – |
| NC(=O)c1nnc(N[C@@H]2CCCC[C@@H]2N)nc1Nc1ccc2nn(C(F)F)cc2c1 [Example 57, 3-((1R,2S)-2-aminocyclohexylamino)-5-(2-(difluoromethyl)-2H-indazol-5-ylamino)-1,2,4-triazine-6-carboxamide] | 179 nM | 0.52 nM | – |
| CCn1ncc2c(C)cc(Nc3nc(N[C@@H]4CCCC[C@@H]4N)nnc3C(N)=O)cc21 [Example 97, 3-(((1R,2S)-2-aminocyclohexyl)amino)-5-((1-ethyl-4-methyl-1H-indazol-6-yl)amino)-1,2,4-triazine-6-carboxamide] | 191 nM | 0.39 nM | – |
| NC(=O)c1nnc(N[C@@H]2CCCC[C@@H]2N)nc1Nc1cccc2c1ccn2[C@H]1CC[C@H](O)CC1 [Example 73, 3-(((1R,2S)-2-aminocyclohexyl)amino)-5-((1-(trans-4-hydroxycyclohexyl)-1H-indol-4-yl)amino)-1,2,4-triazine-6-carboxamide] | 53 nM | 0.37 nM | – |
| NC(=O)c1ccc(NC2CCCCC2N)cc1Nc1cccc2c1OCO2 (stereo not shown) [B, reference compound] | – | 6.8 nM | IC50 [1, 6]: 1900 nM |
| COC[C@H](N)[C@@H](C)Nc1nnc(C(N)=O)c(Nc2cc(C)c3nn(C(C)(C)C)cc3c2)n1 [Example 274] | 155 nM | 0.95 nM | – |
| NC(=O)c1nnc(N[C@@H]2CCCC[C@@H]2N)nc1Nc1cccc2c1ccn2CCO [Example 93, 3-(((1R,2S)-2-aminocyclohexyl)amino)-5-((1-(2-hydroxyethyl)-1H-indol-4-yl)amino)-1,2,4-triazine-6-carboxamide] | 149 nM | 0.67 nM | – |
| Cn1cc2cc(Nc3nc(N[C@@H]4CCOC[C@@H]4N)nnc3C(N)=O)cc(-c3ccccc3)c2n1 [Example 257, 3-(((3R,4R)-3-aminotetrahydro-2H-pyran-4-yl)amino)-5-((2-methyl-7-phenyl-2H-indazol-5-yl)amino)-1,2,4-triazine-6-carboxamide] | 49 nM | 0.38 nM | – |
| CCn1ncc2ccc(Nc3nc(N[C@@H]4CCCC[C@@H]4N)nnc3C(N)=O)cc21 [Example 154] | 138 nM | 0.43 nM | – |
| NC(=O)c1nnc(N[C@@H]2CCCC[C@@H]2N)nc1Nc1cccc2c1ccn2CCF [Example 35, 3-((1R,2S)-2-aminocyclohexylamino)-5-(1-(2-fluoroethyl)-1H-indol-4-ylamino)-1,2,4-triazine-6-carboxamide] | 107 nM | 0.51 nM | – |

The remaining molecules from weak to strong by IC50 (human Syk protein; Table 95), led by results:

| IC50 [1, 5] | IC50 (human Syk protein; Table 95) | SMILES | also measured |
| --- | --- | --- | --- |
| 93 nM | 0.37 nM | CCn1cc2cc(Nc3nc(N[C@@H]4CCCC[C@@H]4N)nnc3C(N)=O)cc(-n3cccn3)c2n1 [Example 79, 3-(((1R,2S)-2-aminocyclohexyl)amino)-5-((2-ethyl-7-(1H-pyrazol-1-yl)-2H-indazol-5-yl)amino)-1,2,4-triazine-6-carboxamide] | – |
| 164 nM | 0.37 nM | Cc1cc(Nc2nc(N[C@@H]3CCOC[C@@H]3N)nnc2C(N)=O)cc2cn(C(C)(C)C)nc12 [Example 61, 3-(((3R,4R)-3-aminotetrahydro-2H-pyran-4-yl)amino)-5-((2-(tert-butyl)-7-methyl-2H-indazol-5-yl)amino)-1,2,4-triazine-6-carboxamide] | – |
| 177 nM | 0.36 nM | NC(=O)c1nnc(N[C@@H]2CCCC[C@@H]2N)nc1Nc1ccc2cnn(C(F)F)c2c1 [Example 165] | – |
| 91 nM | 0.36 nM | Cn1ccc2c(Nc3nc(N[C@@H]4CCCC[C@@H]4N)nnc3C(N)=O)cccc21 [Example 3, 3-((1R,2S)-2-aminocyclohexylamino)-5-(1-methyl-H-indol-4-ylamino)-1,2,4-triazine-6-carboxamide] | – |
| 100 nM | 0.36 nM | Cn1ccc(-n2ccc3c(Nc4nc(N[C@@H]5CCCC[C@@H]5N)nnc4C(N)=O)cccc32)n1 [Example 25, 3-((1R,2S)-2-aminocyclohexylamino)-5-(1-(1-methyl-1H-pyrazol-3-yl)-1H-indol-4-ylamino)-1,2,4-triazine-6-carboxamide] | – |
| 157 nM | 0.35 nM | COC[C@H](N)[C@@H](C)Nc1nnc(C(N)=O)c(Nc2cc(C)cc3c2ccn3C)n1 [Example 256, 3-(((2R,3R)-3-amino-4-methoxybutan-2-yl)amino)-5-((1,6-dimethyl-1H-indol-4-yl)amino)-1,2,4-triazine-6-carboxamide] | – |
| 106 nM | 0.33 nM | Cc1cc(Nc2nc(N[C@@H]3CCCC[C@@H]3N)nnc2C(N)=O)c2ccn(C)c2c1 [Example 60, 3-(((1R,2S)-2-aminocyclohexyl)amino)-5-((1,6-dimethyl-1H-indol-4-yl)amino)-1,2,4-triazine-6-carboxamide] | – |
| 92 nM | 0.29 nM | NC(=O)c1nnc(N[C@@H]2CCCC[C@@H]2N)nc1Nc1cc(-c2ccccc2)cs1 [Example 164] | – |
| 60 nM | 0.29 nM | COC[C@H](N)[C@@H](C)Nc1nnc(C(N)=O)c(Nc2cc(-c3ccccc3)c3nn(C)cc3c2)n1 [Example 258] | – |
| 49 nM | 0.26 nM | Cn1cc(-n2ccc3c(Nc4nc(N[C@@H]5CCCC[C@@H]5N)nnc4C(N)=O)cccc32)cn1 [Example 67, 3-(((1R,2S)-2-aminocyclohexyl)amino)-5-((1-(1-methyl-1H-pyrazol-4-yl)-1H-indol-4-yl)amino)-1,2,4-triazine-6-carboxamide] | – |
| 180 nM | 0.26 nM | NC(=O)c1nnc(N[C@@H]2CCCC[C@@H]2N)nc1Nc1ccc2sccc2c1 [Example 220] | – |
| 138 nM | 0.26 nM | Cc1cc(Nc2nc(N[C@@H]3CCCC[C@@H]3N)nnc2C(N)=O)cc2nn(C)cc12 [Example 91, 3-(((1R,2S)-2-aminocyclohexyl)amino)-5-((2,4-dimethyl-2H-indazol-6-yl)amino)-1,2,4-triazine-6-carboxamide diformate] | – |
| 24 nM | 0.23 nM | Cn1cc2cc(Nc3nc(N[C@@H]4CCCC[C@@H]4N)nnc3C(N)=O)cc(-c3ccccc3)c2n1 [Example 65, 3-(((1R,2S)-2-aminocyclohexyl)amino)-5-((2-methyl-7-phenyl-2H-indazol-5-yl)amino)-1,2,4-triazine-6-carboxamide] | – |
